The values that follow come from patent US11028127B2, “Peptides capable of reactivating p53 mutants” (Yeda Research and Development Co. Ltd., priority 2013, dated 2021).

The test system of data set [1] is WI-38 fibroblasts expressing mouse Noxa shRNA (WI38-m-Noxa-i). In words: Crystal violet viability assay. It is filed as cell-based. The settings on record: 48 hours. Here is the method: (§1) FIGS. 13A and 13B are bar graphs illustrating the effect of various tested peptides on the viability of cells expressing Mut-p53, as determine by crystal violet assay. WI-38 fibroblasts expressing endogenous WT p53 were infected with retroviruses expressing either mouse Noxa shRNA (WI38-m-Noxa-i) as a nonspecific control or the R175H p53 mutant for stable overexpression of mutant p53 (WI38-175). The cells (WI38-m-Noxa-i or WI38-175) were seeded at 3000 cells per well in 96-well plates. Tested peptides were added to the cells. Different concentrations of etoposide (cytotoxic drug, 4′-Demethyl-epipodophyllotoxin 9-[4,6-O—(R)-ethylidene-beta-D-glucopyranoside], 4′-(dihydrogen phosphate) were used as positive control for cell death and as a standard reference curve to assess the effect of tested peptides. 48 hours after treatment, cells were washed with PBS to exclude dead cells and debris, and cells that remained attached to the plate were stained with crystal-violet for 30 minutes. Crystal violet was removed and cells were washed 4 times with PBS to remove residual crystal violet. Then, the stained cells were dissolved in 10% acetic acid and plates were taken for optical density measurement at 595 nM (optimal for crystal violet). The bar graphs of FIGS. 13A and 13B show the optical density reads at 595 nm, which reflect the number of cells in the plate after treatment, normalized to the non-treated (NT) samples.
(§2) Cells were cultured in 96 wells plates with 2500-4000 cells/well in 0.1 ml and incubated overnight at 37° C. in order to adhere to the plate. Serial dilutions of different peptides (0.5 μg/ml) were added in 0.1 ml aliquots and the plates incubated for additional 48 h at 37° C. Then medium was removed and cell lysis was determined by staining the cells with crystal violet (0.5%) in methanol/water (1:4, v/v), 50 μl each well, for 10 min, followed by 3 washes with PBS. Afterwards, 10% acetic acid (50 μl) was added to each well and shaken for 10 min. Then, automatic plate reading was performed at 595 nm.
(§3) An important indication for the reactivating peptides activity is their effect in-vivo on cancer cells that express Mut-p53. In particular, reactivating peptides that can cause specifically Mut-p53-dependent death of cancer cells, with minimal toxic effects on normal cells are desired. A crystal-violet based viability assay, in which crystal-violet is employed to stain cells that adhere to the plate and therefore the amount of dye is proportional to cell number was used to determine the effect of the various test peptides on Mut-p53-dependent death.
(§4) Cells were plated in 96-well plates, at calibrated density that allows them to grow for 48 hours without reaching confluence. Peptides are added 6 hours later. Different concentrations of etoposide (cytotoxic drug) were used as positive control for cell death and as a standard reference curve to assess the effect of tested peptides. 48 hours after treatment, cells were washed with PBS to exclude dead cells and debris, and cells that remained attached to the plate were stained with crystal-violet for 30 minutes. Crystal-violet was removed and cells were washed with PBS 4 times to eliminate remains of crystal-violet. Then, the stained cells were dissolved in 10% acetic acid and plates were taken for optical density measurement at 595 nM (specific to crystal-violet).
(§5) FIGS. 13A and 13B illustrate a representative experiment of screening performed on 128 synthesized peptides. In this experiment, WI-38 fibroblasts were used. These cells express endogenous WT p53 and were further infected with a virus expressing either mouse Noxa shRNA, as a nonspecific control or the R175H p53 mutant for stable overexpression of mutant p53. Both of these sub-lines (mNoxa or R175H p53) were seeded at 3000 cells per well and treated as described above. […]

Data set [2] relates to WI-38 fibroblasts overexpressing R175H p53 (WI38-175). The experiment in a line: Crystal violet viability assay. The settings on record: 48 hours; much more prominent than in mNoxa-i control cells. It is filed as cell-based. The procedure: as §1, §2, §3, §4, §5

YRRLLIGMMWRRRRRRRRRRR [pCAP-68]: in data set [1], the “effect on cell numbers, mNoxa-i control WI-38 cells” value is given as “toxic effect on both cell sub-lines”. Besides, the “reduction in cell numbers, R175H p53 expressing WI-38 cells” value in data set [2] is listed as “toxic effect on both cell sub-lines”.
